Key:
[1] = target: T1, GAL4(DBD)-mouse PXR(LBD) (Mus musculus, UniProt O54915); assay: luciferase reporter transactivation in HG5LN GAL4-mPXR cells; format: cell-based; conditions: dabrafenib, SR12813, PCN 3 μM; clotrimazol 1 μM
T1 construct: together with the pSG5-GAL4(DBD)-h/m/zfPXR(LBD)-puro plasmids; expressed in transfected cells; host or cells: HeLa (HG5LN)
T1 sequence (O54915 143-430 limits assumed): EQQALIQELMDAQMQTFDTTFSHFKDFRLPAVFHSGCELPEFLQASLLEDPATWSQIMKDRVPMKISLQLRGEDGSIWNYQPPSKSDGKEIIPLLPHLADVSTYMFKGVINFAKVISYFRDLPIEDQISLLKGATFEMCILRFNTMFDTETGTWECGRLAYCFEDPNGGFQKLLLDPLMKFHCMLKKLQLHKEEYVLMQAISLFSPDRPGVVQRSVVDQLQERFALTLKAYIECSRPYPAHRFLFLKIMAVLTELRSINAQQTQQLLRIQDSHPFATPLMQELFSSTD
Source text: The different reporter cell lines used in this study are summarized in Supplementary Table S1. HG5LN GAL4-m/zfPXR cells were obtained as previously reported for HG5LN GAL4-hPXR cells. Briefly, Hela cells were stably transfected with the GAL4RE5-βGlob-Luc-SVNeo plasmid alone or together with the pSG5-GAL4(DBD)-h/m/zfPXR(LBD)-puro plasmids leading to the HG5LN and HG5LN-h/m/zfPXR cell lines, respectively. HG5LN GAL4-hCAR and GAL4-hCAR-APYLT cells were obtained in the same way.

[2] = system: LS174T-hPXR cells; assay: LS174T-hPXR proliferation assay (P-screen) after SPA70 pretreatment; format: cell-based, human; conditions: pretreated with SPA70 100 nM; 7 days; read-out: potency (EC50) on proliferation
Experimental: We developed a new proliferation test that we called the P-screen to measure the effects of compounds with PXR activity on the growth of LS174T-hPXR cells. This test uses the same principle as that for E-screen that was used for measuring the effects of estrogens on the proliferation of MCF-7 breast cancer cells. […] The medium was then removed, and cells were treated with increasing concentrations of the different compounds for 7 days. Medium was removed, and 0.1 mL of MTT solution (0.5 mg/mL) was added to each well. The MTT-containing medium was removed 4 h after incubation, and DMSO was added to each well. After shaking, the plates were read in absorbance at 540 nm. Results were expressed as percentage of proliferation with respect to the hormone-free control (100%). Data were obtained by dose–response curves plotted as percentage of proliferation as a function of concentrations.

[3] = system: hPXR target genes (CYP3A4, ABCG2, FGF19) in LS174T-hPXR cells; assay: RT-qPCR of hPXR target genes in LS174T-hPXR cells; format: cell-based, human
Experimental: (§1) Total RNA was isolated and purified using “Zymo Research—Quick RNA mini prep” kit for LS174T-hPXR cells and using Trizol reagent (Thermo Fisher Scientific, Illkirch-Graffenstaden, France) for primary human hepatocytes and HepaRG according to the manufacturer’s protocol. The concentration and the purity of isolated RNA were measured using a spectrophotometer NanoVue (GE health care life sciences, Velizy-Villacoublay, France). Reverse transcription was performed with the qScript cDNA SuperMix (VWR, Fontenay-sous-Bois, France) for LS174-hPXR and HepaRG cells and using a random hexaprimer and the MMLV Reverse Transcriptase Kit (Life Technologies) for primary human hepatocytes. Quantitative polymerase chain reactions were performed using SYBR green (Qiagen, Les Ulis, France) and specific primers (Supplementary Table S2) with the LightCycler®-480 real-time PCR system (Roche Diagnostics, Meylan, France). The relative amount of RNA was calculated with the 2^ΔΔCT method, and gene expression was normalized using GAPDH or RPLP0. In Figure 5AB, the level of expression was compared with the mean level of the corresponding gene expression in DMSO-treated cells and expressed as n-fold ratio.

[4] = system: CYP3A4 and CYP2B6 genes in primary human hepatocytes; assay: RT-qPCR of hPXR target genes in primary human hepatocytes; format: cell-based; conditions: three donors, 48 h
Source text: Liver samples were obtained from the Biologic Resource Center of Montpellier University Hospital (CRB-CHUM; http://www.chumontpellier.fr; Biobank ID: BB-0033-00031), and this study benefitted from the expertise of Dr. Benjamin Rivière (hepatogastroenterology sample collection) and Dr. Edouard Tuaillon (CRB-CHUM manager). Samples were obtained from livers of adult patients who underwent liver resections for medical reasons unrelated to our research program, or from anonymous donors when the liver was considered unsuitable for organ transplantation. The use of human specimens for scientific purposes was approved by the French National Ethics Committee. Written or oral informed consent was obtained from each patient or family prior to surgery. The clinical characteristics of the liver donors are presented in Supplementary Table S2. Hepatocytes were isolated by using a two-step perfusion protocol and cultured as described previously.
as §1

CC(=O)[C@H]1[C@H](C#N)C[C@H]2[C@@H]3CC=C4C[C@@H](O)CC[C@]4(C)[C@H]3CC[C@@]21C [PCN, Pregnenolone 16 alpha-carbonitrile]
activation of mouse PXR LBD (luciferase) [1]: Specific agonist effects

CCOP(=O)(OCC)C(=Cc1cc(C(C)(C)C)c(O)c(C(C)(C)C)c1)P(=O)(OCC)OCC [SR12813]
EC50 [2]: 38 nM
ABCG2 expression increase ([3]; 24 h): 12 fold
CYP3A4 expression increase ([3]; 24 h): 190 fold
concentration of maximal induction of CYP3A4 expression ([3]; 24 h): 1000 nM
FGF19 expression induction ([3]; highest concentration used (3 µM)): 4 fold
induction of CYP2B6 gene expression [4]: significantly induce
induction of CYP3A4 gene expression [4]: significantly induce
